From US8901119B2, “Peptide deformylase inhibitors” (GlaxoSmithKline Intellectual Property (No. 2) Limited, priority 2011, dated 2014)
Values after ≈ are worked out from the molar mass of the structure shown. Read-outs that look alike come from different tables or passages of the source.

Tests used:
[1] = test system: Streptococcus pneumoniae N1387; assay: Antimicrobial activity assay (broth microdilution MIC); type: cell-based; settings: read-out: MIC, S. pneumoniae N1387
Protocol: (§1) Whole-cell antimicrobial activity was determined by broth microdilution using the Clinical and Laboratory Standards Institute (CLSI, formerly NCCLS) recommended methodology (NCCLS Document M7-A7, “Methods for Dilution Antimicrobial Susceptibility Tests for Bacteria that Grow Aerobically; Approved Standard—Seventh Edition”, 2006). Compounds were tested in serial two-fold dilutions ranging from 64 to 0.06 μg/mL against a panel of at least 11 strains. This panel consisted of the following laboratory strains: Staphylococcus aureus Oxford, Staphylococcus aureus WCUH29, Enterococcus faecalis I, Enterococcus faecalis 7 or Enterococcus faecalis X7501, Haemophilus influenzae Q1, Haemophilus influenzae NEMC1 or Haemophilus influenzae H128, Moraxella catarrhalis 1502, Streptococcus pneumoniae 1629, Streptococcus pneumoniae N1387, Streptococcus pneumoniae Ery2 and Escherichia coli 7623 or Escherichia coli 3. All compounds were also tested against Haemophilus influenzae H128 or Escherichia coli 7623 efflux minus mutants (strains in which the AcrA efflux pump had been deleted) to ascertain the extent in which the molecules were effluxed out of the bacteria. In addition, the antibacterial activity of some compounds against Streptococcus pyogenes 1307006P and Streptococcus pyogenes 1308007P was also analyzed. The minimum inhibitory concentration (MIC) was determined as the lowest concentration of compound that inhibited visible growth. A mirror reader was used to assist in determining the MIC endpoint.

[2] = test system: Staphylococcus aureus Oxford; assay: as above; type: cell-based; settings: read-out: MIC, S. aureus Oxford
Protocol: as §1

[3] = test system: Streptococcus pneumoniae Ery2; assay: as above; type: cell-based; settings: ERY2, read-out: MIC, S. pneumoniae ERY2
Protocol: as §1

[4] = test system: Haemophilus influenzae Q1; assay: as above; type: cell-based
Protocol: as §1

[5] = test system: Moraxella catarrhalis 1502; assay: as above; type: cell-based
Protocol: as §1

Escherichia coli 3 = assay: as above; type: cell-based; settings: read-out: MIC, E. coli 3
Protocol: as §1

[6] = test system: Streptococcus pneumoniae 1629; assay: as above; type: cell-based; settings: read-out: MIC, S. pneumoniae 1629
Protocol: as §1

[7] = test system: Streptococcus pyogenes 1308007P; assay: as above; type: cell-based; settings: read-out: MIC, S. pyogenes 1308007P
Protocol: as §1

[8] = test system: Staphylococcus aureus WCUH29; assay: as above; type: cell-based; settings: read-out: MIC, S. aureus WCUH29
Protocol: as §1

[9] = test system: Enterococcus faecalis X7501; assay: as above; type: cell-based; settings: read-out: MIC, E. faecalis X7501
Protocol: as §1

[10] = test system: Haemophilus influenzae H128; assay: as above; type: cell-based; settings: read-out: MIC, H. influenzae H128
Protocol: as §1

Enterococcus faecalis I = assay: as above; type: cell-based; settings: read-out: MIC, E. faecalis I
Protocol: as §1

[11] = target: T1, Staphylococcus aureus PDF (SaPDF) (Staphylococcus aureus, UniProt P68826); assay: PDF IC50 Assay 1 (FDH-coupled, absorbance 340 nm); type: biochemical; settings: Assay 1 conditions; read-out: IC50, S. aureus PDF activity
T1 sequence (P68826 1-183): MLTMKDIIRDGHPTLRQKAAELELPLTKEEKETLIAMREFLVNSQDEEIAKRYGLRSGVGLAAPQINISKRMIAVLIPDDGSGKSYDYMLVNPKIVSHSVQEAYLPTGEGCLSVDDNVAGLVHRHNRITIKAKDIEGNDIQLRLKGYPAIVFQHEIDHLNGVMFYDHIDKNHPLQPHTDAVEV
Protocol: (§2) Enzymatic activity of PDF was measured using a formate dehydrogenase (FDH)-coupled assay [Lazennec and Meinnel (1997) Anal. Biochem. 244, 180-182]. Once formate is released from methionine by PDF, it is oxidized by FDH thereby reducing one molecule of NAD to NADH and resulting in an increase in absorbance at 340 nm. Reactions were initiated by adding PDF to microtiter plates containing all other reaction components and were continuously monitored for 20 min at 25° C. The final reaction composition for the Staphylococcus aureus PDF (SaPDF) assay was 50 mM potassium phosphate, pH 7.6, 5 units/mL FDH, 7 mM NAD, 1% DMSO, 0.01% CHAPS, 1 nM SaPDF, and 3 mM formyl-Met-Ala-Ser in 40 μL total volume. Serial dilutions of inhibitors were performed in DMSO. Reagents and assay format were identical for Haemophilus influenzae PDF except that formyl-Met-Ala-Ser was 6 mM final. In the Streptococcus pneumoniae PDF assay, reaction conditions were similar but contained […] enzyme, 4 mM NAD and 4 mM formyl-Met-Ala-Ser. The varying formyl-Met-Ala-Ser concentrations reflect KM values for substrate using the different PDF isozymes. IC50s were determined by fitting to the equation: % Inhibition=100/1+(IC50/[l])^s, where s is a slope factor, l is the inhibitor concentration and the IC50 is the concentration of compound that causes 50% inhibition.

[12] = target: T2, Haemophilus influenzae PDF (Haemophilus influenzae, UniProt P44786); assay: PDF IC50 Assay 1 (FDH-coupled, absorbance 340 nm); type: biochemical
Protocol: as §2

[13] = target: T3, Streptococcus pneumoniae PDF (Streptococcus pneumoniae serotype 4, UniProt Q9F2F0); assay: PDF IC50 Assay 1 (FDH-coupled, absorbance 340 nm); type: biochemical; settings: Assay 1 conditions; read-out: IC50, S. pneumoniae PDF activity
T3 sequence (Q9F2F0 1-203): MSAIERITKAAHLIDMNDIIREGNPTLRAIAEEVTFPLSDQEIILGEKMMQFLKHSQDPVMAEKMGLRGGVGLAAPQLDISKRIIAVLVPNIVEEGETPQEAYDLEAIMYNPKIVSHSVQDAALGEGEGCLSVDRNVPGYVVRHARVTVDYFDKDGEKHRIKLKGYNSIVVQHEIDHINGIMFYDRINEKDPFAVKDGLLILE
Protocol: as §2

[14] = target: T1, Staphylococcus aureus PDF (SaPDF); assay: PDF IC50 Assay 2 (FDH/NAD+/Diaphorase-coupled fluorescence); type: biochemical; settings: Assay 2 conditions; read-out: IC50, S. aureus PDF activity
Protocol: (§3) Enzymatic activity of PDF was measured using a formate dehydrogenase (FDH)/NAD+/Diaphorase-coupled Fluorescence detection assay. Once formate is released from methionine by PDF, it is oxidized by FDH, thereby reducing one molecule of NAD to NADH. Diaphorase then catalyzes the conversion of Resazurin to Resarufin using the NADH produced by the FDH reaction. The fluorescence intensity of Resarufin is monitored by excitation at 525 nm and emission at 598 nm. The reaction is assembled by first adding the NAD, f-MAS and Resazurin to each well of a 384 well plate containing 50 nl of test compounds. Reactions were initiated by adding PDF in reaction buffer containing FDH and Diaphorase. The final reaction composition for the Staphylococcus aureus PDF (SaPDF) assay was 50 mM potassium phosphate, 0.025% CHAPS pH 7.6, 0.25 units/mL FDH, 0.156 μm! Diaphorase; 0.025 mg/ml BSA; 1 mM NAD, 0.5% DMSO, 1 mM formyl-Met-Ala-Ser; 5 uM Resazurin, and 1 nM SaPDF, in 10 μL total volume. Serial dilutions of inhibitors were performed in DMSO. Reagents and assay format were identical for the Haemophilus influenzae PDF; in the Streptococcus pneumoniae PDF assays, assay composition was the same, except that […] enzyme was used. The endpoint of each reaction was chosen to ensure that all data were collected within the linear range of catalysis. IC50s were determined by fitting to the equation: % Inhibition=100/1+(IC50/[l])^s, where s is a slope factor, l is the inhibitor concentration and the IC50 is the concentration of compound that causes 50% inhibition.

[15] = target: T2, Haemophilus influenzae PDF; assay: as above; type: biochemical
Protocol: as §3

[16] = target: T3, Streptococcus pneumoniae PDF; assay: as above; type: biochemical; settings: Assay 2 conditions; read-out: IC50, S. pneumoniae PDF activity
Protocol: as §3

[17] = Q1, broth microdilution, read-out: MIC, H. influenzae Q1

T2 sequence (P44786 whole entry): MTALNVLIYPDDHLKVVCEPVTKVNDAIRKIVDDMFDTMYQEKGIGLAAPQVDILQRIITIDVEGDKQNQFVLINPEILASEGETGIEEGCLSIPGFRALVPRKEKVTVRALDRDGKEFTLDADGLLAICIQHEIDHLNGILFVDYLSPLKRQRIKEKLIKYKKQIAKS

Structure (SMILES) | MIC [1] [µg/mL] | MIC [2] [µg/mL] | MIC [3] [µg/mL] | MIC [4, 17] [µg/mL] | MIC [5] [µg/mL] | MIC (Escherichia coli 3) [µg/mL] | MIC [6] [µg/mL] | MIC [7] [µg/mL] | MIC [8] [µg/mL] | MIC [9] [µg/mL] | MIC [10] [µg/mL] | MIC (Enterococcus faecalis I) [µg/mL] | IC50 [11] [µM] | IC50 [12] [µM] | IC50 [13] [µM] | IC50 [14] [µM] | IC50 [15] [µM] | IC50 [16] [µM] | MIC ([4]; Q1, read-out: MIC, H. influenzae Q1) [µg/mL]
O=CN(O)C[C@@H](CC1CCCC1)C(=O)N1NCC[C@H]1C(=O)Nc1cccc[n+]1[O-] [Example 45, (3S)-2-((2R)-3-Cyclopentyl-2-{[formyl(hydroxy)amino]methyl}propanoyl)-N-(1-oxido-2-pyridinyl)-3-pyrazolidinecarboxamide] | 0.25 (≈ 0.617 µM) | 1 (≈ 2.47 µM) | 0.25 (≈ 0.617 µM) | 0.5 (≈ 1.23 µM) | ≤ 0.06 | 32 (≈ 78.9 µM) | 0.5 (≈ 1.23 µM) | 4 (≈ 9.87 µM) | 0.25 (≈ 0.617 µM) | 8 (≈ 19.7 µM) | 1 (≈ 2.47 µM) | 2 (≈ 4.93 µM) | – | – | – | – | – | – | –
O=CN(O)C[C@@H](CC1CCCC1)C(=O)N1NCC[C@H]1C(=O)Nc1ccncn1 [Example 59, (3S)-2-((2R)-3-Cyclopentyl-2-{[formyl(hydroxy)amino]methyl}propanoyl)-N-4-pyrimidinyl-3-pyrazolidinecarboxamide] | 0.5 (≈ 1.28 µM) | 0.5 (≈ 1.28 µM) | 0.25 (≈ 0.64 µM) | 0.25 (≈ 0.64 µM) | ≤ 0.06 | 16 (≈ 41 µM) | 1 (≈ 2.56 µM) | 0.25 (≈ 0.64 µM) | ≤ 0.06 | 1 (≈ 2.56 µM) | 0.5 (≈ 1.28 µM) | 2 (≈ 5.12 µM) | ≤ 1 | ≤ 1 | ≤ 1 | – | – | – | –
CN(C)CCOc1nccc(NC(=O)[C@@H]2CCNN2C(=O)[C@H](CC2CCCC2)CN(O)C=O)n1 [Example 81, (3S)-2-((2R)-3-Cyclopentyl-2-{[formyl(hydroxy)amino]methyl}propanoyl)-N-(2-{[2-(dimethylamino)ethyl]oxy}-4-pyrimidinyl)-3-pyrazolidinecarboxamide] | – | – | – | – | – | – | – | – | – | – | – | – | – | – | – | ≤ 1 | ≤ 1 | ≤ 1 | –
O=CN(O)C[C@@H](CC1CCCC1)C(=O)N1NCC[C@H]1C(=O)Nc1ncccn1 [Example 84, (3S)-2-((2R)-3-Cyclopentyl-2-{[formyl(hydroxy)amino]methyl}propanoyl)-N-2-pyrimidinyl-3-pyrazolidinecarboxamide] | 1 (≈ 2.56 µM) | 0.5 (≈ 1.28 µM) | 1 (≈ 2.56 µM) | – | ≤ 0.06 | 16 (≈ 41 µM) | 1 (≈ 2.56 µM) | 0.5 (≈ 1.28 µM) | 0.125 (≈ 0.32 µM) | 16 (≈ 41 µM) | 0.5 (≈ 1.28 µM) | 8 (≈ 20.5 µM) | – | – | – | ≤ 1 | ≤ 1 | ≤ 1 | 0.125 (≈ 0.32 µM)
CN(C)Cc1nccc(NC(=O)[C@@H]2CCNN2C(=O)[C@H](CC2CCCC2)CN(O)C=O)n1 [Example 91, (3S)-2-((2R)-3-Cyclopentyl-2-{[formyl(hydroxy)amino]methyl}propanoyl)-N-{2-[(dimethylamino)methyl]-4-pyrimidinyl}-3-pyrazolidinecarboxamide] | 0.5 (≈ 1.12 µM) | 4 (≈ 8.94 µM) | 1 (≈ 2.23 µM) | 0.5 (≈ 1.12 µM) | ≤ 0.06 | 4 (≈ 8.94 µM) | 2 (≈ 4.47 µM) | 1 (≈ 2.23 µM) | 1 (≈ 2.23 µM) | 16 (≈ 35.8 µM) | 0.5 (≈ 1.12 µM) | 16 (≈ 35.8 µM) | – | – | – | – | – | – | –
O=CN(O)C[C@@H](CC1CCCC1)C(=O)N1N=CC[C@H]1C(=O)Nc1ccncn1 [Example 92, (5S)-1-((2R)-3-Cyclopentyl-2-{[formyl(hydroxy)amino]methyl}propanoyl)-N-4-pyrimidinyl-4,5-dihydro-1H-pyrazole-5-carboxamide] | 0.125 (≈ 0.322 µM) | 0.25 (≈ 0.644 µM) | 0.25 (≈ 0.644 µM) | 0.5 (≈ 1.29 µM) | ≤ 0.06 | 16 (≈ 41.2 µM) | 0.5 (≈ 1.29 µM) | 0.5 (≈ 1.29 µM) | 0.125 (≈ 0.322 µM) | 1 (≈ 2.57 µM) | 0.5 (≈ 1.29 µM) | 1 (≈ 2.57 µM) | – | – | – | – | – | – | –
CCCCC[C@H](CN(O)C=O)C(=O)N1NCC[C@H]1C(=O)Nc1ccc(F)cn1 [Example 100, (3S)—N-(5-Fluoro-2-pyridinyl)-2-((2R)-2-{[formyl(hydroxy)amino]methyl}heptanoyl)-3-pyrazolidinecarboxamide] | – | – | – | – | – | – | – | – | – | – | – | – | ≤ 1 | ≤ 1 | ≤ 1 | – | – | – | –
CCCCC[C@H](CN(O)C=O)C(=O)N1NCC[C@H]1C(=O)Nc1ccncn1 [Example 101, (3S)-2-((2R)-2-{[Formyl(hydroxy)amino]methyl}heptanoyl)-N-4-pyrimidinyl-3-pyrazolidinecarboxamide] | – | – | – | – | – | – | – | – | – | – | – | – | – | – | – | ≤ 1 | ≤ 1 | ≤ 1 | –
O=CN(O)C[C@@H](CC1CCCC1)C(=O)N1NCC[C@H]1C(=O)Nc1ccc(O)cc1 [Example 123, (3S)-2-((2R)-3-Cyclopentyl-2-{[formyl(hydroxy)amino]methyl}propanoyl)-N-(4-hydroxyphenyl)-3-pyrazolidinecarboxamide] | – | – | – | – | – | – | – | – | – | – | – | – | – | – | – | ≤ 1 | ≤ 1 | ≤ 1 | –
